How the values were obtained:
CYP3A4 [1] = molecular target: T1, CYP3A4 (Homo sapiens, UniProt P08684); assay: H2O2-dependent heme depletion assay; design: Codon-optimized full-length and Δ3–22 human CYP3A4 were produced as reported previously [45] and used for assays and crystallization, respectively; made in house; details: for % decay (heme destroyed at the end of the reaction): 1.6 μM CYP3A4, 16 μM inhibitor, 10 mM H2O2, 120 min, relative to ligand-free CYP3A4 (100% decay); for heme preserved: 10 mM H2O2, end of the reaction; for higher heme loss: weaker ligands compared with the strongest binders/inhibitors
T1 sequence (P08684 whole entry): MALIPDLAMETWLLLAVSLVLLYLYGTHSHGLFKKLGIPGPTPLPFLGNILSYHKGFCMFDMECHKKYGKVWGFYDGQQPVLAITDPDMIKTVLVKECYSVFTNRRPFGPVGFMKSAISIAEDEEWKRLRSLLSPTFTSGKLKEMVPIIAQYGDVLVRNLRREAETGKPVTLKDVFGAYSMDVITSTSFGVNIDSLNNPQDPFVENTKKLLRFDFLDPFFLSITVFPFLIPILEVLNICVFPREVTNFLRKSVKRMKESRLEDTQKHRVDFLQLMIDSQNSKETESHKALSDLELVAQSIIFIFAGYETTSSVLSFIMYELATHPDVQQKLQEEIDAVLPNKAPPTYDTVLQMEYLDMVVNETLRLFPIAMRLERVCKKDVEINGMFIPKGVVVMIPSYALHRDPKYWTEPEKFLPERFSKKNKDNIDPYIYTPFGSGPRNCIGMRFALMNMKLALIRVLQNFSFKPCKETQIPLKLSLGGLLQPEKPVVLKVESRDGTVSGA

CYP3A4 [2] = molecular target: T1, CYP3A4; assay: Thermal denaturation (melting temperature of ligand-bound CYP3A4); assay type: binding; design: Codon-optimized full-length and Δ3–22 human CYP3A4 were produced as reported previously [45] and used for assays and crystallization, respectively; made in house; details: 1 μM protein, 20 μM ligand; for ΔTm at 15 min, 20 μM: human, purified CYP3A4 protein, pH 7.4, ligand-dependent change in melting temperature; for ΔTm: ligand-dependent change in melting temperature
Experimental: Thermal Denaturation—Thermal denaturation curves were recorded in 0.1 M phosphate buffer, pH 7.4, in a Cary 300 spectrophotometer. Protein (1 μM) was mixed with a ligand (20 μM) and incubated for 15 min at 23 °C. Melting curves were recorded at 260 nm using a 0.2 °C measurement step, 0.9 °C/min ramp rate, and a 50–75 °C temperature range. A denaturation midpoint (melting temperature; Tm) was determined from non-linear fittings to the melting curve as described earlier.

CYP3A4 [3] = molecular target: T1, CYP3A4; assay: Stopped-flow kinetics of ligand binding; design: Codon-optimized full-length and Δ3–22 human CYP3A4 were produced as reported previously [45] and used for assays and crystallization, respectively; made in house; details: for k fast: rate constant for the fast phase of the ligand binding reaction; for percentage of the fast phase: value in brackets of k fast column
Experimental: (§1) Kinetics of Ligand Binding and Heme Reduction—Kinetics of ligand binding to CYP3A4 and its reduction with sodium dithionite were measured at 426 and 443 nm, respectively, in a SX.18MV stopped flow apparatus (Applied Photophysics, UK), as described earlier.

CYP3A4 [4] = molecular target: T1, CYP3A4; assay: Inhibitory potency for BFC O-debenzylation activity in a soluble reconstituted system; assay type: biochemical; design: The full-length CYP3A4 and rat cytochrome P450 reductase (40 and 60 μM, respectively) were preincubated; made in house; details: BFC debenzylase activity, 0.1 μM CYP3A4 with cytochrome P450 reductase, no NADPH preincubation
CYP3A4 [5] = molecular target: T1, CYP3A4; assay: Kinetics of heme reduction of inhibitor-bound CYP3A4 with sodium dithionite; design: Codon-optimized full-length and Δ3–22 human CYP3A4 were produced as reported previously [45] and used for assays and crystallization, respectively; made in house; details: for portion of the protein reduced: k ET, heme reduction by sodium dithionite; for k ET: rate constant for reduction of inhibitor-bound CYP3A4 with sodium dithionite
Source text: Ritonavir-like molecules inhibit CYP3A4 not only via heme ligation and decrease in the heme redox potential but also by blocking the active site and preventing substrates from accessing the catalytic centre. We usually evaluate the heme accessibility by measuring the rate and percentage of anaerobic heme reduction by sodium dithionite, an artificial electron donor (k^ET in Table 1). […] Therefore, we utilized another method, heme bleaching with hydrogen peroxide, to probe the accessibility of the cofactor. H2O2 is a small oxidizing agent that easily penetrates the protein interior and destroys the heme without altering the P450 structure. Due to the complex, multiphasic nature of heme decay kinetics, it was more convenient to compare the percentage of heme destroyed at the end of the reaction.
as §1

CYP3A4 [6] = molecular target: T1, CYP3A4; assay: Spectral binding titrations (equilibrium ligand binding, type II spectral change); design: Codon-optimized full-length and Δ3–22 human CYP3A4 were produced as reported previously [45] and used for assays and crystallization, respectively; made in house; details: for Kd: WT CYP3A4, 2 μM protein, pH 7.4, quadratic fits to titration plots, read-out: Ks (spectral dissociation constant); for λmax (nm) Ferric: ferric inhibitor-bound CYP3A4, Soret band; for λmax (nm) ferrous: ferrous inhibitor-bound CYP3A4, Soret band; for ΔAmax: maximal absorbance change (peak/trough in difference spectrum) relative to that induced by ritonavir; for A421/417: ratio between the absorbance maxima of ferric ligand-bound and ligand-free CYP3A4
K421A/K424A CYP3A4 = molecular target: T2, K421A/K424A CYP3A4 (Homo sapiens, UniProt P08684, K421A/K424A); assay: Spectral binding titrations with the K421A/K424A mutant; details: read-out: Ks (dissociation constant)
T2 construct: made in house
T2 sequence (P08684 with tags, fused parts or gaps K421A/K424A): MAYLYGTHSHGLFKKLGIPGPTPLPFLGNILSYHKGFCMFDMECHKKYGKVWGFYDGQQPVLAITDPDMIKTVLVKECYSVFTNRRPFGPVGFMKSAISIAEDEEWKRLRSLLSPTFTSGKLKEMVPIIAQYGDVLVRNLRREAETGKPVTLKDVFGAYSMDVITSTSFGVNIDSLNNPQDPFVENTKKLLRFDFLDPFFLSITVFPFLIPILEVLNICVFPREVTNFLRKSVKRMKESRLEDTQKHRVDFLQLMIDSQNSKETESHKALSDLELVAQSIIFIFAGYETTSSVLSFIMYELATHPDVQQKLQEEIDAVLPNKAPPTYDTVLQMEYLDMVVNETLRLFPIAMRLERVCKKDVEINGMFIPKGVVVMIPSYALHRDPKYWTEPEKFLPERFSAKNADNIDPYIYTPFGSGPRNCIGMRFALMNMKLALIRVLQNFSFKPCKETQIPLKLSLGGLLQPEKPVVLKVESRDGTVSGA

| % decay (heme destroyed at the end of the reaction) (CYP3A4 [1]) [%] | heme preserved (CYP3A4 [1]) [%] | ΔTm at 15 min, 20 μM (CYP3A4 [2]) [°C] | k fast (CYP3A4 [3]) [s⁻¹] | percentage of the fast phase (CYP3A4 [3]) [%] | IC50 (CYP3A4 [4]) [nM] | portion of the protein reduced (CYP3A4 [5]) [%] | k ET (CYP3A4 [5]) [s⁻¹] | higher heme loss (CYP3A4 [1]) | ΔTm (CYP3A4 [2]) [°C] | Kd (CYP3A4 [6]) [nM] | λmax (nm) Ferric (CYP3A4 [6]) [nm] | λmax (nm) ferrous (CYP3A4 [6]) [nm] | ΔAmax (CYP3A4 [6]) [%] | A421/417 (CYP3A4 [6]) | Kd (K421A/K424A CYP3A4) [nM] | fold decrease in Ks (CYP3A4 [6]; relative to shorter pyridyl-ethyl counterpart 7b (series IV)) [fold] | SMILES |
| --- | --- | --- | --- | --- | --- | --- | --- | --- | --- | --- | --- | --- | --- | --- | --- | --- | --- |
| 18 | > 80 | 8.1 | 12.5 | 36 | 160 ± 20 | – | – | – | – | – | – | – | – | – | – | – | CC(C)(C)OC(=O)NC(CSC(Cc1ccccc1)C(=O)NCCCc1cccnc1)Cc1ccccc1 (centres unmarked) [Compound 3a] |
| 26 | – | – | – | – | 300 ± 20 | 87 | 0.014 | 4–16% | 5.3 | 29 ± 4 | 421 | 443 | 111 | 1.08 | – | – | CC(C)(C)OC(=O)NC(CSC(Cc1ccccc1)C(=O)NCCCc1cccnc1)Cc1ccccc1 (centres unmarked) [Compound 3b] |
| – | – | 5.8 | – | – | 310 ± 40 | 77 | 0.012 | – | – | – | – | – | – | – | – | – | CC(C)(C)OC(=O)N[C@H](CS[C@@H](Cc1ccccc1)C(=O)NCCCc1cccnc1)Cc1ccccc1 [Compound 3c] |
| 22 | – | 5.6 | 12.0 | 38 | 210 ± 20 | 95 | 0.013 | – | – | – | – | – | – | – | 19 | – | CC(C)(C)OC(=O)N[C@@H](CS[C@H](Cc1ccccc1)C(=O)NCCCc1cccnc1)Cc1ccccc1 [Compound 3d] |
| 18 | > 80 | 7.8 | 20.1 | 24 | 150 ± 30 | 85 | 0.020 | – | – | 19 ± 2 | 422 | 444 | 125 | 1.11 | – | 4 | CC(C)(C)OC(=O)N[C@H](CS[C@H](Cc1ccccc1)C(=O)NCCCc1cccnc1)Cc1c[nH]c2ccccc12 [Compound 3e] |
| 15 | > 80 | 7.9 | – | – | 160 ± 30 | 94 | 0.011 | – | – | – | – | – | – | – | – | – | CC(C)(C)OC(=O)NC(CSC(Cc1ccccc1)C(=O)NCCCc1cccnc1)Cc1cccc2ccccc12 (centres unmarked) [Compound 3f] |
| 22 | – | – | 10.8 | 32 | 300 ± 60 | 75 | 0.011 | 4–16% | 4.9 | 24 ± 6 | 422 | 444 | 111 | 1.09 | – | – | CC(C)(C)OC(=O)NC(CSC(Cc1ccccc1)C(=O)NCCCc1cccnc1)Cc1cccc2ccccc12 (centres unmarked) [Compound 3g] |
| 12 | > 80 | – | 16.1 | 24 | 90 ± 10 | 72 | 0.017 | – | – | 7 ± 1 | 422 | 444 | 112 | 1.09 | – | – | CC(C)(C)OC(=O)N[C@H](CS[C@@H](Cc1ccccc1)C(=O)NCCCc1cccnc1)Cc1cccc2ccccc12 [Compound 3h] |
| 23 | – | 5.5 | 12.3 | 24 | 150 ± 20 | 97 | 0.021 | – | – | 18 ± 3 | 422 | 444 | 114 | 1.10 | 25 | – | CC(C)(C)OC(=O)N[C@@H](CS[C@H](Cc1ccccc1)C(=O)NCCCc1cccnc1)Cc1cccc2ccccc12 [Compound 3i] |
| 25 | – | – | – | – | – | – | – | – | – | – | – | – | – | – | – | – | CC(C)(C)OC(=O)NC(CSCC(Nc1ccccc1)C(=O)NCc1cccnc1)Cc1cccc2ccccc12 (centres unmarked) [Compound 5b, reference compound] |
| 34 | – | < 3 | 9.5 | 29 | 730 ± 60 | 65 | 0.017 | 4–16% | – | 213 ± 9 | 422 | 443 | 113 | 1.07 | – | – | CC(C)(C)OC(=O)NC(CSC(Cc1ccccc1)C(=O)NCCOCc1cccnc1)Cc1ccccc1 (centres unmarked) [Compound 6] |
| 22 | – | 5 | 16.2 | 30 | 330 ± 30 | 58 | 0.018 | – | – | 28 ± 4 | 422 | 444 | 114 | 1.10 | – | – | CC(C)(C)OC(=O)NC(CSCC(Nc1ccccc1)C(=O)NCCCc1cccnc1)Cc1ccccc1 (centres unmarked) [Compound 8] |
